Measured values published in article PMC8881002 (Journal of molecular structure, 2021).

The molecules below were run against T1, electric eel AChE (Electrophorus electricus, UniProt O42275) (assay: biochemical). Conditions: not given.
T1 sequence (O42275 24-633): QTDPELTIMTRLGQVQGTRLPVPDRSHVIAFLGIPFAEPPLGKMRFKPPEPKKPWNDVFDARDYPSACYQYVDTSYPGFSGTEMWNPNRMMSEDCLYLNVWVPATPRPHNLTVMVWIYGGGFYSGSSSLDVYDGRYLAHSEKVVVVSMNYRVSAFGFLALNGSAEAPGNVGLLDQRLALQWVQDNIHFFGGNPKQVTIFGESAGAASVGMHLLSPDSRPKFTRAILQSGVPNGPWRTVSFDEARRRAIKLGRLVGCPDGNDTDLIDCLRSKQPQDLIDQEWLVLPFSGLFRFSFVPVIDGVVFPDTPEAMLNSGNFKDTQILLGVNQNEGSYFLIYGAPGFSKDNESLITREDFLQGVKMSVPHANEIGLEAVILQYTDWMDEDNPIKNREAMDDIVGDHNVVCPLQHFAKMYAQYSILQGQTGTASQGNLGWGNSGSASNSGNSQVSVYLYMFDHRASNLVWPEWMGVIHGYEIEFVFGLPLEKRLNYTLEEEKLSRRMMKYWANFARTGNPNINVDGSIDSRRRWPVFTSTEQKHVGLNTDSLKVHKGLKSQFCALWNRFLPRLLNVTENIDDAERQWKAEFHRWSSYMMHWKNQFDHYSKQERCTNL

| Structure (SMILES) | IC50 [nM] |
| --- | --- |
| COc1cc2c(cc1OC)C(=O)C(CC1CCN(Cc3ccc(C)nc3)CC1)C2 (centres unmarked) [Analog 12, 5,6-dimethoxy-2-((1-((6-methylpyridin-3-yl)methyl)piperidin-4-yl)methyl)-2,3-dihydro-1H-inden-1-one] | 928 |
| COc1cc2c(cc1OC)C(=O)C(CC1CCN(Cc3ccncc3)CC1)C2 (centres unmarked) [Analog 3, 5,6-dimethoxy-2-((1-(pyridin-4-ylmethyl)piperidin-4-yl)methyl)-2,3-dihydro-1H-inden-1-one] | 334 |
| COc1cc2c(cc1OC)C(=O)C(CC1CCN(Cc3cccnc3)CC1)C2 (centres unmarked) [Analog 2, 5,6-dimethoxy-2-((1-(pyridin-3-ylmethyl)piperidin-4-yl)methyl)-2,3-dihydro-1H-inden-1-one] | 51 |
| COc1cc2c(cc1OC)C(=O)C(CC1CCN(Cc3ccncc3Cl)CC1)C2 (centres unmarked) [Analog 7, 2-((1-((3-chloropyridin-4-yl)methyl)piperidin-4-yl)methyl)-5,6-dimethoxy-2,3-dihydro-1H-inden-1-one] | 364 |
| COc1cc2c(cc1OC)C(=O)C(CC1CCN(Cc3cccnc3Br)CC1)C2 (centres unmarked) [Analog 11, 2-((1-((2-bromopyridin-3-yl)methyl)piperidin-4-yl)methyl)-5,6-dimethoxy-2,3-dihydro-1H-inden-1-one] | 1120 |
| COc1cc2c(cc1OC)C(=O)C(CC1CCN(Cc3cccnc3F)CC1)C2 (centres unmarked) [Analog 9, 2-((1-((2-fluoropyridin-3-yl)methyl)piperidin-4-yl)methyl)-5,6-dimethoxy-2,3-dihydro-1H-inden-1-one] | 718 |
| COc1cc2c(cc1OC)C(=O)C(CC1CCN(Cc3ccnc4ccccc34)CC1)C2 (centres unmarked) [Analog 4, 5,6-dimethoxy-2-((1-(quinolin-4-ylmethyl)piperidin-4-yl)methyl)-2,3-dihydro-1H-inden-1-one] | 356 |
| COc1cc2c(cc1OC)C(=O)C(CC1CCN(Cc3c(Cl)cncc3Cl)CC1)C2 (centres unmarked) [Analog 8, 2-((1-((3,5-dichloropyridin-4-yl)methyl)piperidin-4-yl)methyl)-5,6-dimethoxy-2,3-dihydro-1H-inden-1-one] | 4320 |
| COc1cc2c(cc1OC)C(=O)C(CC1CCN(Cc3ccnc(Br)c3)CC1)C2 (centres unmarked) [Analog 6, 2-((1-((2-bromopyridin-4-yl)methyl)piperidin-4-yl)methyl)-5,6-dimethoxy-2,3-dihydro-1H-inden-1-one] | 1800 |
| COc1cc2c(cc1OC)C(=O)C(CC1CCN(Cc3ccccn3)CC1)C2 (centres unmarked) [Analog 1, 5,6-dimethoxy-2-((1-(pyridin-2-ylmethyl)piperidin-4-yl)methyl)-2,3-dihydro-1H-inden-1-one] | 793 |
| COc1cc2c(cc1OC)C(=O)C(CC1CCN(Cc3cccnc3Cl)CC1)C2 (centres unmarked) [Analog 10, 2-((1-((2-chloropyridin-3-yl)methyl)piperidin-4-yl)methyl)-5,6-dimethoxy-2,3-dihydro-1H-inden-1-one] | 414 |
| COc1cc2c(cc1OC)C(=O)C(CC1CCN(Cc3ccnc(Cl)c3)CC1)C2 (centres unmarked) [Analog 5, 2-((1-((2-chloropyridin-4-yl)methyl)piperidin-4-yl)methyl)-5,6-dimethoxy-2,3-dihydro-1H-inden-1-one] | 2060 |

These molecules were tested against T1, electric eel AChE (assay: Kinetic analysis of AChE inhibition). Conditions: not given.
Format: biochemical

| Structure (SMILES) | Ki [nM] |
| --- | --- |
| COc1cc2c(cc1OC)C(=O)C(CC1CCN(Cc3cccnc3)CC1)C2 (centres unmarked) [Analog 2, 5,6-dimethoxy-2-((1-(pyridin-3-ylmethyl)piperidin-4-yl)methyl)-2,3-dihydro-1H-inden-1-one] | 62 |

Same assay, conditions: Lineweaver-Burke double reciprocal plot, electric eel AChE

| Structure (SMILES) | type of inhibition |
| --- | --- |
| COc1cc2c(cc1OC)C(=O)C(CC1CCN(Cc3cccnc3)CC1)C2 (centres unmarked) [Analog 2, 5,6-dimethoxy-2-((1-(pyridin-3-ylmethyl)piperidin-4-yl)methyl)-2,3-dihydro-1H-inden-1-one] | mixed-type inhibition |
